According to patent publication US7405037B2, “Methods and tools for detecting collagen degradation” (Lonza Walkersville, Inc., priority 2004, dated 2008):
No end group written: not given here.

Experiments:
[1] = test system: primary human osteoclasts; assay: OsteoLyse assay: release of europium chelate-labeled collagen fragments by osteoclasts; assay type: cell-based; set-up: inhibition of bone matrix degradation: dose or concentration left out as unconfirmed
Description: Remove a 96-well cell culture plate to which europium chelate-labeled collagen (e.g., collagen labeled with Eu^3+-N′-(p-isothiocyanatobenzyl) diethylenetriamine-N^1,N^2,N^3-tetraacetic acid) is covalently bound from 4° C. storage and let it warm to room temperature. Seed mature osteoclasts or osteoclast precursors (human or non-human) onto the cell culture plate in medium containing M-CSF and soluble RANK ligand. If using Cambrex's primary human osteoclast precursors (Poietics™ Human Osteoclast Precursors), seed the cells at a density of 10,000 cells/well in osteoclast precursor differentiation medium (Cambrex product # PT-8001). See Example 2 for a detailed protocol for the culture of primary human osteoclast precursors (Cambrex product # 2T-110). Precursors cultured in the absence of soluble RANK ligand can serve as “undifferentiated” controls.
Culture the cells for 6 days and then renew the cell culture medium. Fresh medium preferably contains the same concentrations of M-CSF and soluble RANK ligand as in the original day 0 medium. Unused control and differentiation media from day 0 can be frozen (on day 0) and used for the day 6 medium changes.
At least two different types of protocols can be used. If the assay is used to measure the effect of a test compound on differentiation of the osteoclast precursor, the test compound typically is added at day 0 and removed at day 6. However, if the assay is used to measure the effect of a test compound on mature osteoclast function (i.e., bone matrix collagen degradation), the test compound typically is added at day 6 with the new medium addition.
The cell culture medium can be sampled at any time after the medium change. Because a very small volume (5 to 10 μl) of medium is sampled, it is very easy to do time-course studies by repeatedly sampling the medium on sequential days. Medium volumes greater than 10 μl are unnecessary and, because an excess of fluorophore releasing reagent with respect to sample is desired, actually may lead to inefficient counting of the fluorophore as the ratio of fluorophore releasing reagent to sample decreases. […]
Determine the fluorescence of each well of the assay vessel in a time-resolved fluorescence fluorimeter (e.g., a Wallac Victor, with excitation at 340 nm and emission at […]) over a […] time period after an initial delay of 400 μseconds.
Primary human osteoclast precursors were seeded onto europium chelate-labeled collagen covalently bound to a maleic anhydride-derivatized polystyrene plate (Pierce Reacti-Bind™) at 10,000 cells/well and cultured in differentiation medium containing (1) no calcitonin, (2) calcitonin added only at day 5, or (3) calcitonin added on both days 0 and 5. Ten μl samples of culture media were counted after a total of 6 days. […]

[2] = test system: primary human osteoclast precursors; assay: TRAP stain (multinucleated TRAP-positive cells/well); assay type: cell-based
Description: Primary human osteoclast precursors were seeded onto europium chelate-labeled collagen covalently bound to a maleic anhydride-derivatized polystyrene plate at 10,000 cells/well and cultured in medium containing soluble RANK ligand with and without interferon γ. After 9 days, cell culture media were assayed for fluorescent collagen peptides as described in Example 1. Cells in the plate were subsequently stained for TRAP (Sigma # 386-A).
In another experiment, osteoclast precursors were cultured in differentiation medium with and without different concentrations of alendronate. After 7 days the media were renewed and, after an additional 3 days, the cell culture media were sampled as described in Example 1. Cells in the plate were subsequently stained for TRAP (Sigma # 386-A).

[3] = test system: osteoclast precursors; assay: Osteoclast-mediated degradation of covalently bound FITC-labeled collagen (DQ collagen); assay type: cell-based, human; details: 1 ng/ml; days 5, 7 and 9 of culture; FITC-labeled bovine type I collagen
Description: FITC-labeled bovine type I collagen (DQ collagen, Molecular Probes, Inc.) was covalently bound to the surface of a maleic anhydride-derivatized 96-well tissue culture plate. Osteoclast precursors were cultured, with and without differentiation, in the plate as described in Example 2. Interferon γ (1 ng/ml) was added to some wells. At days 5, 7 and 9 of culture, 10 μl samples of each well were collected and added to 200 μl phosphate-buffered saline and counted in a fluorimeter (485/535 nm).

[4] = 9 days of culture, medium with soluble RANK ligand

Molecule: calcitonin (CGNLSTCMLGTYTQDFNKFHTFPQTAIGVGAP; ends and bridges not checked; cysteine pairing not given here; UniProt P01258 85-116, looked up)
- effect on resorptive activity of the osteoclasts ([1]; calcitonin added on days 0 and 5 (prior exposure on day 0)): little effect
- inhibition of bone matrix degradation ([1]; calcitonin for 24 hours (added day 5 of culture), counted after 6 days): 88%

Molecule: interferon γ [cytokine added to osteoclast precursor cultures]
- IC50, percent inhibition relative to controls, TRAP assay [2, 4]: approximately 0.1 ng/ml
- IC50, percent inhibition relative to controls, OsteoLyse assay [1, 4]: approximately 0.1 ng/ml
- inhibition of osteoclast-mediated collagen degradation [3]: completely inhibited

Molecule: NCCCC(O)(P(=O)(O)O)P(=O)(O)O [alendronate]
- inhibition of differentiation of osteoclast precursors (multinucleated TRAP-positive osteoclasts) ([2]; different concentrations, medium renewed after 7 days, 3 additional days): did not inhibit
- IC50 ([1]; Osteoclast, OsteoLyse assay, primary human osteoclasts, read-out: IC50, in vitro inhibition of bone resorption): ~2000 nM
